PubChem BioAssay (NCI)
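Abbreviation: GI50, concentration required for 50% inhibition of growth. TGI: total growth inhibition.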

Assays:
Test in all cases: DTP human tumour cell line panel, 384-well format
[1] = test system: NCI-H226 lung
[2] = test system: SNB-19 CNS
[3] = test system: DU-145 prostate
[4] = test system: CCRF-CEM leukemia
[5] = test system: BT-549 breast
[6] = test system: MALME-3M melanoma
[7] = test system: PC-3 prostate
[8] = test system: NCI-H322M lung
[9] = test system: LOX IMVI melanoma
[10] = test system: NCI/ADR-RES ovarian
[11] = test system: SR leukemia
[12] = test system: OVCAR-8 ovarian
[13] = test system: MDA-MB-231 breast
[14] = test system: KM12 colon
[15] = test system: SF-539 CNS
[16] = test system: IGROV1 ovarian
[17] = test system: RPMI-8226 leukemia
[18] = test system: HT29 colon
[19] = test system: RXF 393 renal
[20] = test system: OVCAR-5 ovarian
[21] = test system: NCI-H460 NSCLC
[22] = test system: OVCAR-4 ovarian
[23] = test system: HOP-92 NSCLC
[24] = test system: HS 578T breast
[25] = test system: MDA-MB-468 breast
[26] = test system: MDA-MB-435 melanoma
[27] = test system: NCI-H522 lung
[28] = test system: UO-31 renal
[29] = test system: SK-MEL-5 melanoma
[30] = test system: HCT-15 colon
[31] = test system: SF-295 CNS
[32] = test system: HL-60(TB) leukemia
[33] = test system: COLO 205 colon
[34] = test system: OVCAR-3 ovarian
[35] = test system: HCC-2998 colon
[36] = test system: HOP-62 NSCLC
[37] = test system: M14 melanoma
[38] = test system: UACC-257 melanoma
[39] = test system: A498 renal
[40] = test system: MOLT-4 leukemia
[41] = test system: SN12C renal
[42] = test system: SF-268 CNS
[43] = test system: K-562 leukemia
[44] = test system: EKVX NSCLC
[45] = test system: U251 glioblastoma
[46] = test system: NCI-H23 lung
[47] = test system: SK-MEL-28 melanoma
[48] = test system: SNB-75 CNS
[49] = test system: SW-620 colon
[50] = test system: 786-0 renal
[51] = test system: T-47D breast
[52] = test system: SK-OV-3 ovarian
[53] = test system: CAKI-1 renal
[54] = test system: ACHN renal
[55] = test system: MCF7 breast
[56] = test system: UACC-62 melanoma
[57] = test system: TK-10 renal
[58] = test system: A549 NSCLC

## CCC(CC)c1cc(N[C@H]2CC[C@H](N)C2)n2nccc2n1
[1]
  GI50: 226 nM
  TGI: 513 nM
[2]
  GI50: 377 nM
  TGI: > 100000 nM
[3]
  GI50: 313 nM
  TGI: 933 nM
[4]
  GI50: 210 nM
  TGI: 423 nM
[5]
  GI50: 207 nM
  TGI: 459 nM
[6]
  GI50: 761 nM
  TGI: 1950 nM
[7]
  GI50: 262 nM
  TGI: 723 nM
[8]
  GI50: 403 nM
  TGI: 1510 nM
[9]
  GI50: 190 nM
  TGI: 343 nM
[10]
  GI50: 2250 nM
  TGI: 9280 nM
[11]
  GI50: 125 nM
  TGI: 253 nM
[12]
  GI50: 329 nM
  TGI: 1760 nM
[13]
  GI50: 269 nM
  TGI: 778 nM
[14]
  GI50: 295 nM
  TGI: 906 nM
[15]
  GI50: 210 nM
  TGI: 452 nM
[16]
  GI50: 414 nM
  TGI: > 100000 nM
[17]
  GI50: 181 nM
  TGI: 337 nM
[18]
  GI50: 406 nM
  TGI: > 100000 nM
[19]
  GI50: 191 nM
  TGI: 366 nM
[20]
  GI50: 392 nM
  TGI: > 100000 nM
[21]
  GI50: 195 nM
  TGI: 461 nM
[22]
  GI50: 192 nM
  TGI: 414 nM
[23]
  GI50: 340 nM
  TGI: 24300 nM
[24]
  GI50: 269 nM
  TGI: 628 nM
[25]
  GI50: 254 nM
  TGI: 612 nM
[26]
  GI50: 320 nM
  TGI: 903 nM
[27]
  GI50: 209 nM
  TGI: 455 nM
[28]
  GI50: 388 nM
  TGI: 1970 nM
[29]
  GI50: 182 nM
  TGI: 331 nM
[30]
  GI50: 348 nM
  TGI: 1390 nM
[31]
  GI50: 223 nM
  TGI: 499 nM
[32]
  GI50: 214 nM
  TGI: 378 nM
[33]
  GI50: 267 nM
  TGI: 646 nM
[34]
  GI50: 200 nM
  TGI: 411 nM
[35]
  GI50: 235 nM
  TGI: 572 nM
[36]
  GI50: 234 nM
  TGI: 532 nM
[37]
  GI50: 276 nM
  TGI: 766 nM
[38]
  GI50: 553 nM
  TGI: 1770 nM
[39]
  GI50: 218 nM
  TGI: 457 nM
[40]
  GI50: 247 nM
  TGI: 528 nM
[41]
  GI50: 241 nM
  TGI: 598 nM
[42]
  GI50: 274 nM
  TGI: 724 nM
[43]
  GI50: 345 nM
  TGI: 1230 nM
[44]
  GI50: 516 nM
  TGI: 2650 nM
[45]
  GI50: 334 nM
  TGI: 995 nM
[46]
  GI50: 220 nM
  TGI: 505 nM
[47]
  GI50: 969 nM
  TGI: 2220 nM
[48]
  GI50: 380 nM
  TGI: 1190 nM
[49]
  GI50: 360 nM
  TGI: 8000 nM

## Cc1cncc(-c2nc(NCCc3c[nH]c4ccccc34)c3ncn(C(C)C)c3n2)c1
[1]
  GI50: 4340 nM
  TGI: 11300 nM
[2]
  GI50: 5500 nM
  TGI: 18800 nM
[3]
  GI50: 3470 nM
  TGI: 11100 nM
[50]
  GI50: 1760 nM
  TGI: 3650 nM
[4]
  GI50: 2110 nM
  TGI: 4220 nM
[5]
  GI50: 4910 nM
  TGI: 15400 nM
[6]
  GI50: 1770 nM
  TGI: 3240 nM
[7]
  GI50: 3190 nM
  TGI: 8620 nM
[51]
  GI50: 3570 nM
  TGI: 10900 nM
[8]
  GI50: 3060 nM
  TGI: 10100 nM
[9]
  GI50: 4150 nM
  TGI: 13900 nM
[10]
  GI50: 3290 nM
  TGI: 9080 nM
[11]
  GI50: 1470 nM
  TGI: 3020 nM
[12]
  GI50: 4050 nM
  TGI: 13600 nM
[13]
  GI50: 4160 nM
  TGI: 12000 nM
[14]
  GI50: 2070 nM
  TGI: 4210 nM
[52]
  GI50: 3990 nM
  TGI: 12300 nM
[15]
  GI50: 2630 nM
  TGI: 7180 nM
[16]
  GI50: 4190 nM
  TGI: 14800 nM
[17]
  GI50: 2200 nM
  TGI: 3780 nM
[18]
  GI50: 1710 nM
  TGI: 3190 nM
[19]
  GI50: 1960 nM
  TGI: 4630 nM
[20]
  GI50: 2060 nM
  TGI: 4730 nM
[53]
  GI50: 3960 nM
  TGI: 12700 nM
[21]
  GI50: 2260 nM
  TGI: 4530 nM
[22]
  GI50: 3370 nM
  TGI: 9200 nM
[54]
  GI50: 4170 nM
  TGI: 13500 nM
[55]
  GI50: 3420 nM
  TGI: 9200 nM
[23]
  GI50: 3760 nM
  TGI: 10500 nM
[24]
  GI50: 2520 nM
  TGI: 5410 nM
[25]
  GI50: 2210 nM
  TGI: 4140 nM
[26]
  GI50: 5520 nM
  TGI: 17800 nM
[27]
  GI50: 4420 nM
  TGI: 13100 nM
[28]
  GI50: 4640 nM
  TGI: 17300 nM
[29]
  GI50: 2500 nM
  TGI: 7390 nM
[30]
  GI50: 1770 nM
  TGI: 3290 nM
[31]
  GI50: 1930 nM
  TGI: 3930 nM
[56]
  GI50: 2560 nM
  TGI: 5810 nM
[32]
  GI50: 1730 nM
  TGI: 3150 nM
[33]
  GI50: 2280 nM
  TGI: 4290 nM
[34]
  GI50: 4650 nM
  TGI: 14300 nM
[35]
  GI50: 2500 nM
  TGI: 5000 nM
[36]
  GI50: 2920 nM
  TGI: 8220 nM
[37]
  GI50: 2840 nM
  TGI: 6110 nM
[38]
  GI50: 2040 nM
  TGI: 3540 nM
[57]
  GI50: 3120 nM
  TGI: 13200 nM
[39]
  GI50: 2390 nM
  TGI: 6390 nM
[40]
  GI50: 1870 nM
  TGI: 3550 nM
[41]
  GI50: 5320 nM
  TGI: 17200 nM
[42]
  GI50: 3930 nM
  TGI: 12800 nM
[43]
  GI50: 1890 nM
  TGI: 3470 nM
[44]
  GI50: 4240 nM
  TGI: 14000 nM
[46]
  GI50: 3810 nM
  TGI: 12800 nM
[47]
  GI50: 1890 nM
  TGI: 3940 nM
[48]
  GI50: 4460 nM
  TGI: 16800 nM
[58]
  GI50: 3840 nM
  TGI: 14100 nM
[49]
  GI50: 2110 nM
  TGI: 3740 nM
